± gives the standard deviation of the averaged measurements.
Legend:
HS-PSS [1] = test: drug sensitivity score (DSS, CellTiter-Glo viability, 72 h) (DSS (dimensionless)); higher = more sensitive; extreme values may be limits of the assay
Method in brief: (§1)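 MPNST cell lines and primary human Schwann cells (750–1000 cells per well) went into 384-well plates preprinted with each compound at five concentrations in 10-fold steps. Plates were incubated 72 h at 37 °C, 5% CO2. Viability was read as CellTiter-Glo ATP luminescence, scaled between vehicle and positive-control wells, with duplicates averaged where present. Percent inhibition is at the top concentration; drug sensitivity score and relative IC50 (censored at top concentration) come from four-parameter logistic fits.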

HS-Sch-2 [2] = test: as above
Method in brief: as §1

[3] = test system: HSC1 (primary human Schwann cells); test: as above
Method in brief: as §1

[4] = test system: HSC2 (primary human Schwann cells); test: as above
Method in brief: as §1

S1507-2 [5] = test: as above
Method in brief: as §1

S462 [6] = test: as above
Method in brief: as §1

ST8814 [7] = test: as above
Method in brief: as §1

STS26T [8] = test: as above
Method in brief: as §1

YST-1 [9] = test: as above
Method in brief: as §1

HS-PSS [10] = test: drug sensitivity score (DSS, CellTox-Green cytotoxicity, 72 h) (DSS (dimensionless)); higher = more cytotoxic; extreme values may be limits of the assay
Method in brief: (§2)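 MPNST cell lines and primary human Schwann cells were incubated 72 h at 37 °C in 384-well plates holding five 10-fold compound dilutions. CellTox-Green was added before seeding at a final 1:1000 dilution and reported fluorescence from DNA released by disrupted cells. Signals were scaled to vehicle and positive-control wells, and cultures failing plate quality control were dropped. Drug sensitivity score and relative IC50 come from four-parameter logistic fits, with IC50 censored at the top concentration.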

[11] = test system: HSC1 (primary human Schwann cells); test: as above
Method in brief: as §2

[12] = test system: HSC2 (primary human Schwann cells); test: as above
Method in brief: as §2

S1507-2 [13] = test: as above
Method in brief: as §2

ST8814 [14] = test: as above
Method in brief: as §2

STS26T [15] = test: as above
Method in brief: as §2

HS-PSS [16] = test: % inhibition of CellTiter-Glo viability at highest tested concentration (72 h), relative to DMSO and benzethonium chloride controls; higher = more inhibition
Method in brief: as §1

HS-Sch-2 [17] = test: as above
Method in brief: as §1

[18] = test system: HSC1 (primary human Schwann cells); test: as above
Method in brief: as §1

[19] = test system: HSC2 (primary human Schwann cells); test: as above
Method in brief: as §1

S1507-2 [20] = test: as above
Method in brief: as §1

S462 [21] = test: as above
Method in brief: as §1

ST8814 [22] = test: as above
Method in brief: as §1

STS26T [23] = test: as above
Method in brief: as §1

YST-1 [24] = test: as above
Method in brief: as §1

In the case of CC[C@@H]1C(=O)N(C)c2cnc(Nc3ccc(C(=O)NC4CCN(C)CC4)cc3OC)nc2N1C1CCCC1 [BI 2536] (max concentration tested 1000 nM), the drug sensitivity score (HS-PSS [1]) is reported as 15, the drug sensitivity score (HS-Sch-2 [2]) is reported as 24.5 and the drug sensitivity score [3] is reported as 13.3. The drug sensitivity score [4] was 17.4, the drug sensitivity score (S1507-2 [5]) was 19.5 ± 0.21 and the drug sensitivity score (S462 [6]) was 28.42 ± 0.2. The drug sensitivity score (ST8814 [7]) was 22.1, the drug sensitivity score (STS26T [8]) was 29.6 and the drug sensitivity score (YST-1 [9]) was 20.5. For the same compound, the drug sensitivity score (HS-PSS [10]) was 0.25, the drug sensitivity score [11] was 11.3 and the drug sensitivity score [12] was 20.1. The drug sensitivity score (S1507-2 [13]) was 15.6 ± 0.4, the drug sensitivity score (ST8814 [14]) was 19.5 and the drug sensitivity score (STS26T [15]) was 32.3. The “% inhibition” value (HS-PSS [16]) was 61%, the “% inhibition” value (HS-Sch-2 [17]) was 66.8% and the “% inhibition” value [18] was 62.9%. The “% inhibition” value [19] was 79.4%, the “% inhibition” value (S1507-2 [20]) was 86.7 ± 3% and the “% inhibition” value (S462 [21]) was 101.6 ± 0.24%. The “% inhibition” value (ST8814 [22]) was 84.1%, the “% inhibition” value (STS26T [23]) was 75.9% and the “% inhibition” value (YST-1 [24]) was 54.1%.
With COc1c(C)cnc(Cn2cnc3c(Cl)nc(N)nc32)c1C [BIIB021] (max concentration tested 10000 nM) the drug sensitivity score (HS-PSS [1]) was 14.4, the drug sensitivity score (HS-Sch-2 [2]) was 24.5 and the drug sensitivity score [3] was 16.2. It also gave a drug sensitivity score [4] of 17.6, a drug sensitivity score (S1507-2 [5]) of 18.1 ± 1.3 and a drug sensitivity score (S462 [6]) of 20.083 ± 0.0076. For the same compound, the drug sensitivity score (ST8814 [7]) was 17.8, the drug sensitivity score (STS26T [8]) was 16.9 and the drug sensitivity score (YST-1 [9]) was 15. For the same compound, the drug sensitivity score (HS-PSS [10]) was 5.44, the drug sensitivity score [11] was 20 and the drug sensitivity score [12] was 19.7. It also gave a drug sensitivity score (S1507-2 [13]) of 15.8 ± 2.9, a drug sensitivity score (ST8814 [14]) of 9.2 and a drug sensitivity score (STS26T [15]) of 11.8. For the same compound, the “% inhibition” value (HS-PSS [16]) was 88%, the “% inhibition” value (HS-Sch-2 [17]) was 99.9% and the “% inhibition” value [18] was 96.4%. For the same compound, the “% inhibition” value [19] was 96.9%, the “% inhibition” value (S1507-2 [20]) was 98.34 ± 0.36% and the “% inhibition” value (S462 [21]) was 97 ± 1.1%. The “% inhibition” value (ST8814 [22]) was 96.1%, the “% inhibition” value (STS26T [23]) was 90.3% and the “% inhibition” value (YST-1 [24]) was 84.3%.
O=C(/C=C/c1cccc(S(=O)(=O)Nc2ccccc2)c1)NO [Belinostat] (max concentration tested 10000 nM) showed a drug sensitivity score (HS-PSS [1]) of 10.8, a drug sensitivity score (HS-Sch-2 [2]) of 13.7 and a drug sensitivity score [3] of 15.4. For the same compound, the drug sensitivity score [4] was 13.2, the drug sensitivity score (S1507-2 [5]) was 16.6 ± 0.76 and the drug sensitivity score (S462 [6]) was 12.7 ± 0.28. The drug sensitivity score (ST8814 [7]) was 17.2, the drug sensitivity score (STS26T [8]) was 13 and the drug sensitivity score (YST-1 [9]) was 18.1. It also gave a drug sensitivity score (HS-PSS [10]) of 4.69, a drug sensitivity score [11] of 8.65 and a drug sensitivity score [12] of 8.85. It also gave a drug sensitivity score (S1507-2 [13]) of 12.2 ± 2, a drug sensitivity score (ST8814 [14]) of 12.4 and a drug sensitivity score (STS26T [15]) of 12.7. For the same compound, the “% inhibition” value (HS-PSS [16]) was 88.1%, the “% inhibition” value (HS-Sch-2 [17]) was 101% and the “% inhibition” value [18] was 102%. The “% inhibition” value [19] was 101%, the “% inhibition” value (S1507-2 [20]) was 104 ± 1.3% and the “% inhibition” value (S462 [21]) was 102.5 ± 0.29%. The “% inhibition” value (ST8814 [22]) was 102%, the “% inhibition” value (STS26T [23]) was 98.9% and the “% inhibition” value (YST-1 [24]) was 101%.
For Cn1c(CCCC(=O)O)nc2cc(N(CCCl)CCCl)ccc21 [Bendamustine] (max concentration tested 10000 nM), the drug sensitivity score (HS-PSS [1]) was 0, the drug sensitivity score (HS-Sch-2 [2]) was 0 and the drug sensitivity score [3] was 0. It also gave a drug sensitivity score [4] of 0, a drug sensitivity score (S1507-2 [5]) of 0 and a drug sensitivity score (S462 [6]) of 0. For the same compound, the drug sensitivity score (ST8814 [7]) was 0, the drug sensitivity score (STS26T [8]) was 0 and the drug sensitivity score (YST-1 [9]) was 0.01. The drug sensitivity score (HS-PSS [10]) was 0, the drug sensitivity score [11] was 0 and the drug sensitivity score [12] was 0. The drug sensitivity score (S1507-2 [13]) was 0, the drug sensitivity score (ST8814 [14]) was 0 and the drug sensitivity score (STS26T [15]) was 0. The “% inhibition” value (HS-PSS [16]) was 4.27%, the “% inhibition” value (HS-Sch-2 [17]) was 9.41% and the “% inhibition” value [18] was 5.73%. For the same compound, the “% inhibition” value [19] was 8.93%, the “% inhibition” value (S1507-2 [20]) was -3.59 ± 5.5% and the “% inhibition” value (S462 [21]) was -6.58 ± 4%. The “% inhibition” value (ST8814 [22]) was -3.13%, the “% inhibition” value (STS26T [23]) was 0.816% and the “% inhibition” value (YST-1 [24]) was 10.4%.
Work on C=C(c1ccc(C(=O)O)cc1)c1cc2c(cc1C)C(C)(C)CCC2(C)C [Bexarotene] (max concentration tested 10000 nM) yielded a drug sensitivity score (HS-PSS [1]) of 0, a drug sensitivity score (HS-Sch-2 [2]) of 0 and a drug sensitivity score [3] of 2.52. It also gave a drug sensitivity score [4] of 0, a drug sensitivity score (S1507-2 [5]) of 2.77 ± 0.55 and a drug sensitivity score (S462 [6]) of 0. For the same compound, the drug sensitivity score (ST8814 [7]) was 0, the drug sensitivity score (STS26T [8]) was 0 and the drug sensitivity score (YST-1 [9]) was 0. The drug sensitivity score (HS-PSS [10]) was 0, the drug sensitivity score [11] was 0 and the drug sensitivity score [12] was 0. It also gave a drug sensitivity score (S1507-2 [13]) of 1.23 ± 0.75, a drug sensitivity score (ST8814 [14]) of 0 and a drug sensitivity score (STS26T [15]) of 0. The “% inhibition” value (HS-PSS [16]) was -11.5%, the “% inhibition” value (HS-Sch-2 [17]) was 4.76% and the “% inhibition” value [18] was 11.7%. For the same compound, the “% inhibition” value [19] was -0.128%, the “% inhibition” value (S1507-2 [20]) was 22.7 ± 3.6% and the “% inhibition” value (S462 [21]) was -9.52 ± 9.1%. The “% inhibition” value (ST8814 [22]) was 5.83%, the “% inhibition” value (STS26T [23]) was -8.14% and the “% inhibition” value (YST-1 [24]) was -1.34%.
CC(O)(CS(=O)(=O)c1ccc(F)cc1)C(=O)Nc1ccc(C#N)c(C(F)(F)F)c1 (stereo not drawn) [Bicalutamide] (max concentration tested 10000 nM) showed a drug sensitivity score (HS-PSS [1]) of 0.45, a drug sensitivity score (HS-Sch-2 [2]) of 0.01 and a drug sensitivity score [3] of 0.0562. The drug sensitivity score [4] was 0, the drug sensitivity score (S1507-2 [5]) was 0 and the drug sensitivity score (S462 [6]) was 0.149 ± 0.21. For the same compound, the drug sensitivity score (ST8814 [7]) was 0, the drug sensitivity score (STS26T [8]) was 0.0466 and the drug sensitivity score (YST-1 [9]) was 0. The drug sensitivity score (HS-PSS [10]) was 0, the drug sensitivity score [11] was 0 and the drug sensitivity score [12] was 0. The drug sensitivity score (S1507-2 [13]) was 0, the drug sensitivity score (ST8814 [14]) was 0 and the drug sensitivity score (STS26T [15]) was 0. The “% inhibition” value (HS-PSS [16]) was 14.1%, the “% inhibition” value (HS-Sch-2 [17]) was 12.8% and the “% inhibition” value [18] was 11.9%. For the same compound, the “% inhibition” value [19] was -3.88%, the “% inhibition” value (S1507-2 [20]) was 0.808 ± 0.64% and the “% inhibition” value (S462 [21]) was 7.3 ± 7.9%. For the same compound, the “% inhibition” value (ST8814 [22]) was 7.2%, the “% inhibition” value (STS26T [23]) was 12% and the “% inhibition” value (YST-1 [24]) was -3.03%.
For CCNC(=O)CCC/C=C\C[C@@H]1[C@@H](/C=C/[C@@H](O)CCc2ccccc2)[C@H](O)C[C@@H]1O [Bimatoprost] (max concentration tested 5500 nM), the drug sensitivity score (HS-PSS [1]) was 0.89, the drug sensitivity score (HS-Sch-2 [2]) was 0.89 and the drug sensitivity score [3] was 0. For the same compound, the drug sensitivity score [4] was 0, the drug sensitivity score (S1507-2 [5]) was 0.00145 ± 0.0021 and the drug sensitivity score (S462 [6]) was 0.502 ± 0.71. It also gave a drug sensitivity score (ST8814 [7]) of 0, a drug sensitivity score (STS26T [8]) of 0 and a drug sensitivity score (YST-1 [9]) of 0. The drug sensitivity score (HS-PSS [10]) was 0.89, the drug sensitivity score [11] was 0 and the drug sensitivity score [12] was 0. It also gave a drug sensitivity score (S1507-2 [13]) of 0, a drug sensitivity score (ST8814 [14]) of 0 and a drug sensitivity score (STS26T [15]) of 0. The “% inhibition” value (HS-PSS [16]) was -11.6%, the “% inhibition” value (HS-Sch-2 [17]) was -3.66% and the “% inhibition” value [18] was 2.26%. For the same compound, the “% inhibition” value [19] was 9.6%, the “% inhibition” value (S1507-2 [20]) was 0.42 ± 0.85% and the “% inhibition” value (S462 [21]) was 9.55 ± 12%. The “% inhibition” value (ST8814 [22]) was 2.33%, the “% inhibition” value (STS26T [23]) was 7.31% and the “% inhibition” value (YST-1 [24]) was 7.41%.

— the supplement of paper PMC5579334
